Measurements taken from patent US20230047816A1 (priority 2018, published 2023).
pEC50, pIC50: −log10 of the molar value. Counter-ions that a name gives are not always drawn.

Experiments:
neurons [1] = experiment: Neuroprotection, protection factor, NMDA treatment; type: cell-based; conditions: Treatment NMDA 100 μM 10 minutes, then inhibitor 24 hours
Protocol: (§1) For NMDAR activation, neurons at 8 days in vitro were incubated 100 μM NMDA (plus 10 μM glycine) for 10 minutes. Neurons were then washed and further incubated in culture medium with the PFKFB3 inhibitors for 24 hours. For b-amyloid treatment, neurons at 8 days in vitro were incubated with […] b-amyloid plus the PFKFB3 inhibitors for 24 hours. The Protection factor was estimated as [AMC(beta-A)−AMC(DMSO)]/[AMC(beta-A)−AMC(Test article)] or [AMC(beta-A)−AMC(DMSO)]/[AMC(NMDA)−AMC(Test article)], where:
(§2) AMC(DMSO)—% dead neuron in case of DMSO treatment
AMC(NMDA)—% dead neuron in case of NMDA treatment
(§3) AMC(Test article)—% dead neuron in case of PFKFB3 inhibitors treatment.

neurons [2] = experiment: Neuroprotection, protection factor, b-amyloid treatment; type: cell-based; conditions: Treatment beta-amyloid, 24 hours
Protocol: as §1, §2
AMC(beta—A)—% dead neuron in case of b—amyloid treatment
as §3

established tumors = conditions: reported in the literature; cited from earlier work
PFKFB3 = PFKFB3 (Homo sapiens, UniProt Q16875); conditions: reported in the literature; cited from earlier work
[3] = reported in the literature; cited from earlier work
[4] = target: Recombinant full length human PFKFB4 (Homo sapiens, UniProt Q16877); experiment: PFKFB4 kinase activity assay (ADP production, ADP-Glo)
Protocol: Recombinant full length human PFKFB3 (or PFKFB4) protein purified from Sf9 baculoviral system was acquired from SignalChem (Cat. #P323-30G or P324-30G). ATP, Fructose-6-Phosphate and other chemicals were from Sigma-Aldrich. The kinase activity of the PFKFB3 (PFKFB4) protein was detected by measuring production of ADP from ATP in the presence of the Fructose-6-Phosphate substrate. The kinase reactions were assembled in 384 well plates in a total volume of 25 μL. Test compounds were serially diluted in DMSO. Reactions were set up by first mixing test compounds with enzyme and pre-incubating for 15 min. The ATP and Fructose-6-Phosphate substrates were next added to initiate the kinase reactions.
The compounds of invention listed below in this example were tested at various concentrations (which also added 1% DMSO from compounds, to the final solution) as described below. The kinase reactions were allowed to proceed for 1 h at room temperature. Aliquots of the reaction mixtures (5 μL) were transferred to fresh white 384 well plates and mixed with 5 μL of the ADP-Glo reagent (Promega), followed by incubation for 30 min. The luminescent Kinase Detection reagent was added (10 μL) and, following additional incubation for 15 min, the plates were read on luminescence plate reader (Analyst HT). Positive (100%-inhibition) and negative (0%-inhibition) control samples were assembled in each assay plate and were used to calculate percent inhibition values of test compounds. All experiments were performed in duplicate.

[5] = target: Recombinant full length human PFKFB3 (Homo sapiens, UniProt Q16875); experiment: PFKFB3 kinase activity assay (ADP production, ADP-Glo)
MDA-MB-468 = experiment: Combination with anticancer agents, MDA-MB-468; type: cell-based; conditions: Homo sapiens, anticancer agent alone
Protocol: (§4) All cells can be incubated in the plates overnight at 37° C., 5% 002 incubator with different medium.

T-47D = experiment: Combination with anticancer agents, T-47D; type: cell-based; conditions: Homo sapiens, T47D, anticancer agent alone
Protocol: as §4

HUVEC spheroids = experiment: VEGF-A induced sprouting, spheroid-based cellular angiogenesis assay; type: cell-based; conditions: Homo sapiens
Protocol: The effect of PFKFB3 inhibitors on VEGF-A induced sprouting of HUVECs in a spheroid-based cellular angiogenesis assay. Sunitinib was used as a control. The experiments were pursued in modification of the originally published protocol (Korff and Augustin: J Cell Sci 112: 3249-58, 1999). In brief, spheroids were prepared as described (Korff and Augustin: J Cell Biol 143:1341-52, 1998) by pipetting 500 HUVEC in a hanging drop on plastic dishes to allow overnight spheroid aggregation. 50 HUVEC spheroids were then seeded in 0.9 ml of a collagen gel and pipetted into individual wells of a 24 well plate to allow polymerization. The test compounds in combination with the growth factor VEGF-A at 25 ng/ml final assay concentration) were added after 30 min by pipetting 100 μl of a 10-fold concentrated working solution on top of the polymerized gel. Plates were incubated at 37° C. for 24 hours and fixed by adding 4% Roti-Histofix (Roth, Karlsruhe, Germany). Sprouting intensity of HUVEC spheroids treated with the growth factor and the inhibitors were quantitated by an image analysis system determining the cumulative sprout length per spheroid (CSL) using an inverted microscope and the digital imaging software NIS-Elements BR 3.0 (Nikon). The mean of the cumulative sprout length of 10 randomly selected spheroids was analyzed as an individual data point.

Sequence of Recombinant full length human PFKFB4 (Q16877 whole entry): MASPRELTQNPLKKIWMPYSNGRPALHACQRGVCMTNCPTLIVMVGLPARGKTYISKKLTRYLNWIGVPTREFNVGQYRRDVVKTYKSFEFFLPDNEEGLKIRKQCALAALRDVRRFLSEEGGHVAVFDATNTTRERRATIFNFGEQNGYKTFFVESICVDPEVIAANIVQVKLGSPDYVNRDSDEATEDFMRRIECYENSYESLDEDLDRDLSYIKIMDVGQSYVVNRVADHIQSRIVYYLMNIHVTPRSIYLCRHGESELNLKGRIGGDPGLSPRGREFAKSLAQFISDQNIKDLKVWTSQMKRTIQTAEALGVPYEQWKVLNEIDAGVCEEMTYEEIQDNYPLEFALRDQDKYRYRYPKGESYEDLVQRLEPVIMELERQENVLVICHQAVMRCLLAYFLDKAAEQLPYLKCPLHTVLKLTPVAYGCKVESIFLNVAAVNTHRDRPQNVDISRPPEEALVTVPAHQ
Sequence of Recombinant full length human PFKFB3 (Q16875 whole entry): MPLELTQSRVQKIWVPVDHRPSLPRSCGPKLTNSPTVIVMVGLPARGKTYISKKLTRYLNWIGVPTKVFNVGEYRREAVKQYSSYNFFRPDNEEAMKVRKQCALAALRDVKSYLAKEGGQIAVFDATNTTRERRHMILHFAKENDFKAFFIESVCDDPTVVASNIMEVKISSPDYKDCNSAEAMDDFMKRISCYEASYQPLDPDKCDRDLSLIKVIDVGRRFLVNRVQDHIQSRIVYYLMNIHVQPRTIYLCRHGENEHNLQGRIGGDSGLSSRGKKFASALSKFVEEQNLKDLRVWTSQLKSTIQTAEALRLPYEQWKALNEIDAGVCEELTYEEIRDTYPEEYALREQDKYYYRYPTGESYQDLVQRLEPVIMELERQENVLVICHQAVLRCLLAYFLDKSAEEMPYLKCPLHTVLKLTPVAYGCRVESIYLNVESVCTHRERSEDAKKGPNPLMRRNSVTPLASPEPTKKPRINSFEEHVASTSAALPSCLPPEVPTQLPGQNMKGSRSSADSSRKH
Sequence of PFKFB3 (Q16875 whole entry, species assumed): as the sequence (Q16875 whole entry) above

| SMILES | Protection factors (neurons [2]) | pIC50 [5] | also measured |
| --- | --- | --- | --- |
| CC(CN(C)C)OC(=O)c1ccc(-c2ccc(F)c(F)c2)cc1N1Cc2ccc(-c3cn[nH]n3)cc2C1=O (centres unmarked) | – | – | Protection factors (neurons [1]): 2.56 |
| O=C(O)c1ccc2c(c1)C(=O)N(c1cc(-c3ccc(Cl)cc3Cl)ccc1C(=O)O)C2=O | 1.75 | – | – |
| O=C(O)c1cc2c(cc1O)C(=O)N(c1cc(-c3ccc(F)c(F)c3)ccc1C(=O)O)C2=O | 2.15 | – | – |
| CN(C)CCOC(=O)c1ccc(-c2ccc(Cl)cc2Cl)cc1NC(=O)c1ccc(C(=O)N=S(C)(C)=O)cc1C(=O)O | 1.43 | – | – |
| O=C(OCC(O)CO)c1ccc(-c2ccc(F)c(F)c2)cc1N1Cc2ccc(-c3cn[nH]n3)cc2C1=O (centres unmarked) | – | – | Protection factors (neurons [1]): 1.35 |
| O=C(O)c1ccc(-c2ccc(F)c(F)c2)cc1N1C(=O)c2cc(Cl)c(-c3cn[nH]n3)cc2C1=O | 1.15 | – | – |
| O=C(O)c1ccc(-c2ccc(F)c(F)c2)cc1N1Cc2ccc(-c3cn[nH]n3)cc2C1=O | 12.17 | – | – |
| O=C1NCC(COC(=O)c2ccc(-c3ccc(F)c(F)c3)cc2N2Cc3ccc(-c4cn[nH]n4)cc3C2=O)O1 (centres unmarked) | – | – | Protection factors (neurons [1]): 1.05 |
| CCOC(=O)c1ccc(-c2ccc(F)c(F)c2)cc1N1Cc2ccc(-c3cn[nH]n3)cc2C1=O | 2.35 | – | – |
| CC(C)OC(=O)c1ccc(-c2ccc(F)c(F)c2)cc1N1Cc2ccc(-c3cn[nH]n3)cc2C1=O | 1.43 | – | – |
| CC1(C)CCC(c2ccc(C(=O)O)c(NC(=O)c3cc(C(=O)O)c(O)cc3C(=O)O)c2)CC1 [2-{[2-carboxy-5-(4,4-dimethylcyclohexyl)phenyl]carbamoyl}-5-hydroxybenzene-1,4-dicarboxylic acid] | 2.05 | – | – |
| O=C(O)c1cc(C(=O)O)c(C(=O)Nc2cc(-c3ccc(Cl)cc3Cl)ccc2C(=O)O)cc1O [4-({4-carboxy-2′,4′-dichloro-[1,1′-biphenyl]-3-yl}carbamoyl)-6-hydroxybenzene-1,3-dicarboxylic acid] | 8.07 | – | – |
| CC1(C)CCN(c2ccc(C(=O)O)c(NC(=O)c3cc(O)c(C(=O)O)cc3C(=O)O)c2)CC1 [4-{[2-carboxy-5-(4,4-dimethylpiperidin-1-yl)phenyl]carbamoyl}-6-hydroxybenzene-1,3-dicarboxylic acid] | 4.33 | – | – |
| CC(C)Cn1cc(C#N)c2cc(Oc3ccc(NC(=O)[C@@H]4CCCN4)cc3)ccc21 [(2S)-N-(4-{[3-cyano-1-(2-methylpropyl)-1H-indol-5-yl]oxy]phenyl)pyrrolidine-2-carboxamide] | 1.97 | – | – |
| Cc1noc(C)c1Cn1cc(C#N)c2cc(Oc3ccc(NC(=O)[C@@H]4CCCN4)cc3)ccc21 [(2S)-N-[4-({3-cyano-1-[(3,5-dimethyl-1,2-oxazol-4-yl)methyl]-1H-indol-5-yl}oxy)phenyl]pyrrolidine-2-carboxamide] | 1.68 | – | – |
| O=C(/C=C/c1ccc2ccc(C(F)(F)F)cc2n1)c1ccncc1 [ACT-PFK-158, (E)-1-(pyridin-4-yl)-3-(7-(trifluoromethyl)quinolin-2-yl)prop-2-en-1-one] | – | – | growth of established tumors in vivo (established tumors): reduce growth of established tumors in vivo; PFKFB3 inhibition (PFKFB3): inhibit PFKFB3; glucose uptake [3]: reduce glucose uptake; intracellular concentration of Fru-2,6-BP [3]: reduce intracellular concentration of Fru-2,6-BP |
| O=C(O)c1ccc(-c2ccc(F)c(F)c2)cc1N1C(=O)c2ccc(-c3c[nH]nn3)cc2C1=O [Compound 82, 3′,4′-Difluoro-3-[1,3-dioxo-5-(1H-[1,2,3]triazol-4-yl)-1,3-dihydroisoindol-2-yl]biphenyl-4-carboxylic Acid] | – | > 6.30 | pIC50 [4]: > 6.30 |
| O=C(O)c1ccc2c(c1)C(=O)N(c1ccc(-c3ccccc3)cc1C(=O)O)C2=O [Compound 134, 2-(3-Carboxybiphenyl-4-yl)-1,3-dioxo-2,3-dihydro-1H-isoindole-5-carboxylic acid] | – | > 6.30 | pIC50 [4]: > 6.30 |
| O=C(O)c1ccc2c(c1)C(=O)N(c1cc(-c3ccc(F)c(F)c3)ccc1C(=O)O)C2=O [Compound 138, 2-(4-Carboxy-3′,4′-difluoro[1,1′-biphenyl]-3-yl)-1,3-dioxo-2,3-dihydro-1H-isoindole-5-carboxylic acid] | – | > 6.30 | pIC50 [4]: > 6.30 |
| O=C(O)c1ccc2c(c1)C(=O)N(c1cc(-c3ccc(Cl)c(F)c3)ccc1C(=O)O)C2=O [Compound 143, 2-(4-Carboxy-4′-chloro-3′-fluoro[1,1′-biphenyl]-3-yl)-1,3-dioxo-2,3-dihydro-1H-isoindole-5-carboxylic acid] | – | > 6.30 | pIC50 [4]: > 6.30 |
| O=C(O)c1cc2c(cc1O)C(=O)N(c1cc(-c3ccc(F)c(F)c3)ccc1C(=O)O)C2=O [Compound 144a, 2-(4-Carboxy-3′,4′-difluoro[1,1′-biphenyl]-3-yl)-6-hydroxy-1,3-dioxo-2,3-dihydro-1H-isoindole-5-carboxylic acid] | – | > 6.30 | pIC50 [4]: > 6.30 |
| O=C(O)c1ccc(-c2ccc(F)c(F)c2)cc1N1C(=O)c2cc(Cl)c(-c3cnn[nH]3)cc2C1=O [Compound 144b, 3-[5-Chloro-1,3-dioxo-6-(1H-1,2,3-triazol-5-yl)-2,3-dihydro-1H-isoindol-2-yl]-3′,4′-difluoro[1,1′-biphenyl]-4-carboxylic Acid] | – | > 6.30 | pIC50 [4]: > 6.30 |
| O=C(O)c1ccc(-c2ccccc2)cc1N1C(=O)c2cc(Cl)c(-c3cnn[nH]3)cc2C1=O [Compound 144c, 3-[5-Chloro-1,3-dioxo-6-(1H-1,2,3-triazol-5-yl)-2,3-dihydro-1H-isoindol-2-yl][1,1′-biphenyl]-4-carboxylic Acid] | – | > 6.30 | pIC50 [4]: > 6.30 |
| COc1cccc2c1C(=O)c1c(O)c3c(c(O)c1C2=O)C[C@@](O)(C(=O)CO)C[C@@H]3O[C@H]1C[C@H](N)[C@H](O)[C@H](C)O1 [Doxorubicin, Doxorubicin Hydrochloride] | – | – | pIC50 (MDA-MB-468): 7.15 |
| O=C(c1cc(Cc2n[nH]c(=O)c3ccccc23)ccc1F)N1CCN(C(=O)C2CC2)CC1 [Olaparib] | – | – | pIC50 (T-47D): 4.41 |
| CC(=O)O[C@H]1C(=O)[C@@]2(C)[C@H]([C@H](OC(=O)c3ccccc3)[C@]3(O)C[C@H](OC(=O)[C@H](O)[C@@H](NC(=O)c4ccccc4)c4ccccc4)C(C)=C1C3(C)C)[C@]1(OC(C)=O)CO[C@@H]1C[C@@H]2O [Paclitaxel] | – | – | pIC50 (MDA-MB-468): 8.00 |
| CCN(CC)CCNC(=O)c1c(C)[nH]c(/C=C2\C(=O)Nc3ccc(F)cc32)c1C [Sunitinib, reference compound] | – | – | Emax (HUVEC spheroids; HUVEC, positive control, read-out: maximal effect (inhibition of vessel sprouting)): 100%; pEC50 (HUVEC spheroids; 3D HUVEC model, VEGF-A 25 ng/ml, 24 hours, read-out: EC50 of inhibition of vessel sprouting): 7.00 |
| CCOC(=O)c1ccc(-c2ccc(F)c(F)c2)cc1N1Cc2ccc(-c3cnn[nH]3)cc2C1=O [compound 166, ethyl 3′,4′-difluoro-3-[1-oxo-6-(1H-1,2,3-triazol-5-yl)-2,3-dihydro-1H-isoindol-2-yl][1,1′-biphenyl]-4-carboxylate] | – | > 4.70 | pIC50 [4]: > 4.70 |
| COc1cc2c(cc1C(=O)O)C(=O)N(c1cc(-c3ccc(F)c(F)c3)ccc1C(=O)O)C2=O [compound 170, 2-(4-carboxy-3′,4′-difluoro[1,1′-biphenyl]-3-yl)-6-methoxy-1,3-dioxo-2,3-dihydro-1H-isoindole-5-carboxylic acid] | – | > 6.30 | – |
